Data from US20110171279A1, “POLYETHYLENIMINE BIOCIDES” (NDSU RESEARCH FOUNDATION, priority 2009, published 2011).
Converted amounts (≈) assume the structure as drawn. Like-named read-outs stand apart in the source and are kept apart here.

Key:
Format in all cases: cell-based
Escherichia coli = test: Growth reduction / MIC test against Escherichia coli in Luria-Bertani broth, absorbance 600 nm; conditions: for MIC: Escherichia coli, read-out: E. Coli MIC; for Percent reduction in growth of Escherichia coli: Table 3
Procedure: (§1) The antimicrobial properties of the Formulations were determined by measuring the minimum inhibitory concentration (MIC) or by using an adaptation of the MIC test. […] Additional details of the MIC method can be found at Andrews, J. M., Journal of Antimicrobial Chemotherapy (2001) 48, 5-16, incorporated herein by reference in its entirety.
In accordance with the MIC test, working solutions for each Formulation were prepared by dissolving 100 mg of each Formulation in 10 mL of methanol (Sigma-Aldrich) to generate a 10 mg/mL solution. Next, 10 ml of Luria-Bertani broth was spiked with 200 μL of the mg/mL Formulation solution to achieve a final concentration of 0.2 mg/mL.
0.2 mL of each concentration of each Formulation (spiked with E. coli) was added in triplicate to a 96-well plate. Additionally, 0.2 mL of Luria-Bertani broth without any E. coli or Formulation and 0.2 mL of Luria-Bertani broth with E. coli, but no Formulations, served as negative and positive growth controls, respectively. Plates were then placed in an incubator, at 37° C. for 24 hrs (with shaking), and then measured for growth by taking absorbance measurements at 600 nm with a multi-well plate spectrophotometer (Synergy HT). The efficacy of each Formulation was measured by determining the percent reduction in bacterial growth as a function of Formulation concentration.
Next, the antimicrobial activity of Formulations 69-77 and Reference 1 toward E. coli was measured by determining the percent reduction in bacterial growth as a function of concentration. The results for the examples were compared to various PEIs used to produce the examples.

Navicula incerta = test: Growth reduction / MIC test against Navicula incerta in Guillard's F/2 medium, chlorophyll fluorescence; conditions: for Percent reduction in growth of Navicula incerta: Table 4
Procedure: as §1
(§2) In accordance with the MIC test, working solutions for each Formulation were prepared by dissolving 100 mg of each Formulation in 10 mL of methanol (Sigma-Aldrich) to generate a 10 mg/mL solution. Next, 10 ml of Guillard's F/2 medium was spiked with 200 μL of the 10 mg/mL Formulation solution to achieve a final concentration of 0.2 mg/mL.
(§3) 0.2 mL of each concentration of each Formulation (spiked with N. incerta) was added in triplicate to a 96-well plate. Additionally, 0.2 mL of Guillard's F/2 medium without any N. incerta or Formulation and 0.2 mL of Guillard's F/2 medium with N. incerta, but no Formulations, served as negative and positive growth controls, respectively. The 96-well plates were placed in an illuminated growth cabinet with a 16:8 light:dark cycle (photon flux density 33 μmol m^−2 s^−1) for 48 hrs at 18° C. and measured for chlorophyll fluorescence using a multi-well plate spectrophotometer (excitation: 360 nm; emission: 670 nm). The efficacy of each Formulation was measured by determining the percent reduction in diatom growth as a function of Formulation concentration.

Cellulophaga lytica = test: Growth reduction / MIC test against Cellulophaga lytica; conditions: for MIC: Cellulophaga lytica; for Percent reduction in growth of Cellulophaga lytica: Table 5
Procedure: as §1, §2
as §3, with “C. lytica)” for “N. incerta)”, “C. lytica” for “N. incerta”, “C. lytica,” for “N. incerta,”
(§4) The antimicrobial activity of Formulations 10-12, also derived from ETCS and PEI, was determined toward a suite of marine microorganisms, namely, Pseudoalteromonas atlantica, Cellulophaga lytica, Cobetia marina, and Halomonas pacifica. The antimicrobial activity of Formulations 10-12 was determined toward these marine microorganisms according to the methods of EXAMPLES 5-7. The MIC for each Formulation against each strain is compared to that of the PEI, ETCS, and TCS (alone) in Table 7.

[1] = test system: Pseudoalteromonas atlantica; test: MIC test against Pseudoalteromonas atlantica
Procedure: as §1, §4

[2] = Formulation Concentration 0.78125 μg/mL
[3] = Formulation Concentration 1.5625 μg/mL
[4] = Formulation Concentration 3.125 μg/mL
[5] = Formulation Concentration 6.25 μg/mL
[6] = Formulation Concentration 12.5 μg/mL
[7] = Formulation Concentration 25 μg/mL
[8] = Formulation Concentration 50 μg/mL
[9] = Formulation Concentration 100 μg/mL

Row | SMILES | Percent reduction in growth of Escherichia coli (Escherichia coli; [2]) [%] | Percent reduction in growth of Escherichia coli (Escherichia coli; [3]) [%] | Percent reduction in growth of Escherichia coli (Escherichia coli; [4]) [%] | Percent reduction in growth of Escherichia coli (Escherichia coli; [5]) [%] | Percent reduction in growth of Escherichia coli (Escherichia coli; [6]) [%] | Percent reduction in growth of Escherichia coli (Escherichia coli; [7]) [%] | Percent reduction in growth of Escherichia coli (Escherichia coli; [8]) [%] | Percent reduction in growth of Escherichia coli (Escherichia coli; [9]) [%] | Percent reduction in growth of Navicula incerta (Navicula incerta; [2]) [%] | Percent reduction in growth of Navicula incerta (Navicula incerta; [3]) [%] | Percent reduction in growth of Navicula incerta (Navicula incerta; [4]) [%] | Percent reduction in growth of Navicula incerta (Navicula incerta; [5]) [%] | Percent reduction in growth of Navicula incerta (Navicula incerta; [6]) [%] | Percent reduction in growth of Navicula incerta (Navicula incerta; [7]) [%] | Percent reduction in growth of Navicula incerta (Navicula incerta; [8]) [%] | Percent reduction in growth of Navicula incerta (Navicula incerta; [9]) [%] | Percent reduction in growth of Cellulophaga lytica (Cellulophaga lytica; [2]) [%] | Percent reduction in growth of Cellulophaga lytica (Cellulophaga lytica; [3]) [%] | Percent reduction in growth of Cellulophaga lytica (Cellulophaga lytica; [4]) [%] | Percent reduction in growth of Cellulophaga lytica (Cellulophaga lytica; [5]) [%] | other results
1 | Clc1ccc(Oc2ccc(Cl)cc2OCC2CO2)c(Cl)c1 (stereo not drawn) [ETCS, 2-((5-chloro-2-(2,4-dichlorophenoxy)phenoxy)methyl)oxirane] | 0.00 | 0.00 | 0.00 | 0.00 | 0.00 | 0.00 | 0.00 | 0.26 | 0.00 | 0.00 | 0.00 | 0.00 | 34.14 | 89.92 | 91.40 | 93.37 | 0.00 | 5.92 | 10.06 | 11.24 | MIC (Escherichia coli; Table 12): > 100 µg/mL; MIC (Cellulophaga lytica; Table 7, read-out: C. lytica MIC): > 100 µg/mL; Percent reduction in growth of Cellulophaga lytica (Cellulophaga lytica; [6]): 33.73%; Percent reduction in growth of Cellulophaga lytica (Cellulophaga lytica; [7]): 57.40%; Percent reduction in growth of Cellulophaga lytica (Cellulophaga lytica; [8]): 69.23%; Percent reduction in growth of Cellulophaga lytica (Cellulophaga lytica; [9]): 14.20%; C. lytica MIC (Cellulophaga lytica; Table 12): >100 µg/mL; MIC ([1]; Table 7, read-out: P. atlantica MIC): > 100 µg/mL
2 | Oc1cc(Cl)ccc1Oc1ccc(Cl)cc1Cl [TCS, triclosan] | 14.66 | 52.34 | 93.43 | 93.93 | 93.43 | 93.93 | 93.93 | 93.93 | 14.26 | 22.00 | 84.51 | 91.29 | 94.57 | 93.55 | 94.21 | 94.95 | 12.29 | 32.40 | 59.78 | 86.87 | MIC (Escherichia coli): 0.781 µg/mL; MIC (Navicula incerta; read-out: N. incerta MIC): 3.12 µg/mL (≈ 10.8 µM); MIC (Cellulophaga lytica; read-out: C. lytica MIC, Table 7): 6.25 to 12.5 µg/mL (≈ 21.6 to 43.2 µM); MIC (Cellulophaga lytica; read-out: C. lytica MIC, Table 12): 12.5 µg/mL (≈ 43.2 µM); Percent reduction in growth of Cellulophaga lytica (Cellulophaga lytica; [6]): 86.87%; Percent reduction in growth of Cellulophaga lytica (Cellulophaga lytica; [7]): 87.15%; Percent reduction in growth of Cellulophaga lytica (Cellulophaga lytica; [8]): 87.15%; Percent reduction in growth of Cellulophaga lytica (Cellulophaga lytica; [9]): 86.59%; MIC ([1]; read-out: P. atlantica MIC): 50 µg/mL (≈ 173 µM)
